Test results reported in PubChem BioAssay AID330 (DTP/NCI, 2004).
“And” between values parts separate entries of the source, which are not always exact repeats. Equal values may be shown once. Inconclusive results and toxic doses are left out. The calls were made as follows: active = survival T/C of 150% or more; inactive = T/C below 125% in these data. Peptide text beside a SMILES is read from it. * marks the point of attachment. For = O=C*

Tested on: P388 leukemia ip, CD2F1 mice, survival T/C
Assay: NCI In Vivo Anticancer Drug Screen. Data for tumor model P388 Leukemia (intraperitoneal) in CD2F1 (CDF1) mice
Settings: endpoint: median survival time, higher = longer survival
Procedure, shortened: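 Mice carrying the transplanted tumor received test compound or vehicle. Survival was recorded in each group, and the value is the treated-group measurement divided by that of the vehicle-treated control group.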

[1] = dose: 60.0 mg/kg/injection, schedule: Q01DX005 (ip), vehicle: saline with Tween-80
[2] = dose: 120.0 mg/kg/injection, schedule: Q01DX005 (ip), vehicle: saline with Tween-80
[3] = dose: 240.0 mg/kg/injection, schedule: Q01DX005 (ip), vehicle: saline with Tween-80
[4] = dose: 12.5 mg/kg/injection, schedule: Q01DX009 (ip), vehicle: saline with Tween-80
[5] = dose: 25.0 mg/kg/injection, schedule: Q01DX009 (ip), vehicle: saline with Tween-80
[6] = dose: 6.25 mg/kg/injection, schedule: Q01DX005 (ip), vehicle: saline with Tween-80
[7] = dose: 12.5 mg/kg/injection, schedule: Q01DX005 (ip), vehicle: saline with Tween-80
[8] = dose: 25.0 mg/kg/injection, schedule: Q01DX005 (ip), vehicle: saline with Tween-80
[9] = dose: 100.0 mg/kg/injection, schedule: Q01DX005 (ip), vehicle: saline with Tween-80
[10] = dose: 200.0 mg/kg/injection, schedule: Q01DX005 (ip), vehicle: saline with Tween-80
[11] = dose: 50.0 mg/kg/injection, schedule: Q01DX005 (ip), vehicle: saline with Tween-80
[12] = dose: 60.0 mg/kg/injection, schedule: Q01DX005 (ip), vehicle: saline
[13] = dose: 120.0 mg/kg/injection, schedule: Q01DX005 (ip), vehicle: saline

Measured: T/C

CC(NC=O)C(=O)NCC(=O)NC(CO)C(=O)NC(CCC(=O)O)C(=O)O (centres undefined) (For-AGSE-OH; configuration not given here)
inactive: dose: 7.81 mg/kg/injection, schedule: Q01DX005 (ip), vehicle: water 105 % of control | dose: 15.63 mg/kg/injection, schedule: Q01DX005 (ip), vehicle: water 104 % of control | dose: 31.25 mg/kg/injection, schedule: Q01DX005 (ip), vehicle: water 101 % of control | dose: 62.5 mg/kg/injection, schedule: Q01DX005 (ip), vehicle: water 101 % of control | dose: 125.0 mg/kg/injection, schedule: Q01DX005 (ip), vehicle: water 99 % of control

OC1c2cc(Cl)ccc2-c2c(N=Cc3ccc4c(c3)OCO4)cc(Cl)cc21 (centres undefined)
inactive: [1] 91 % of control | [2] 99 % of control | [3] 98 % of control

CCOC(=O)N1Cc2cc3cc(Cl)ccc3nc2C1
inactive: dose: 3.13 mg/kg/injection, schedule: Q01DX009 (ip), vehicle: saline with Tween-80 98 % of control | dose: 6.25 mg/kg/injection, schedule: Q01DX009 (ip), vehicle: saline with Tween-80 105 % of control | dose: 8.0 mg/kg/injection, schedule: Q01DX009 (ip), vehicle: saline with Tween-80 95 % of control | [4] 105 % of control | dose: 16.0 mg/kg/injection, schedule: Q01DX009 (ip), vehicle: saline with Tween-80 88 % of control | [5] 116 % of control | dose: 32.0 mg/kg/injection, schedule: Q01DX009 (ip), vehicle: saline with Tween-80 87 % of control | dose: 64.0 mg/kg/injection, schedule: Q01DX009 (ip), vehicle: saline with Tween-80 95 % of control | dose: 128.0 mg/kg/injection, schedule: Q01DX009 (ip), vehicle: saline with Tween-80 100 % of control

COc1cc2c(c(OC)c1OC)-c1ccc(OC)c(=O)cc1[C@@H](NC=O)CC2
inactive: dose: 0.25 mg/kg/injection, schedule: Q01DX009 (ip), vehicle: saline 117 % of control

CCn1c2ccccc2c2cc(NC(=S)NC(=O)c3cccs3)ccc21
inactive: [6] 93 % of control | [7] 86 % of control | [8] 93 % of control | [9] 90 % of control | [10] 92 % of control

COC(=O)c1cc(-c2ccco2)c2c(=O)n(-c3ccccc3)[nH]c2n1
inactive: [1] 103 % of control | [2] 105 % of control | [3] 94 % of control

O=C(Nc1ccc(Sc2ccc(N=Nc3c(O)c(S(=O)(=O)O)cc4cc(S(=O)(=O)O)ccc34)cc2)cc1)c1ccc(N=Nc2c(O)c(S(=O)(=O)O)cc3cc(S(=O)(=O)O)ccc23)cc1
inactive: [11] 98 % of control | [9] 104 % of control | [10] 104 % of control

COc1cc2c(cc1NC(C)=O)C(=O)CCCC2
inactive: dose: 100.0 mg/kg/injection, schedule: Q01DX009 (ip), vehicle: saline + alcohol 107 % of control | dose: 200.0 mg/kg/injection, schedule: Q01DX009 (ip), vehicle: saline + alcohol 103 % of control | dose: 400.0 mg/kg/injection, schedule: Q01DX009 (ip), vehicle: saline + alcohol 110 % of control

Nc1ncnc2c1c(-c1ccccc1)cn2-c1ccc(I)cc1
inactive: [1] 103 % of control | [2] 100 % of control | [3] 96 % of control

FC(F)(F)c1ccc2nc(Cl)[nH]c2c1
inactive: [11] 98 % of control | [9] 98 % of control

COC(=O)c1cn(NS(=O)(=O)c2ccc(OC)cc2)cc1C(=O)OC
inactive: [1] 96 % of control | [2] 101 % of control | [3] 104 % of control

CCOC(=O)N1C=CC=C(Br)C1C#N (centres undefined)
inactive: [11] 114 % of control

COc1ccc(C(=O)Cc2nc3nnc(N)n3nc2CC(=O)c2ccc(OC)cc2)cc1
inactive: [12] 96 % of control | [13] 100 % of control | dose: 240.0 mg/kg/injection, schedule: Q01DX005 (ip), vehicle: saline 100 % of control

NC(=S)N/N=C1\C(=O)NC(=O)C1c1ccccc1 (centres undefined)
inactive: [11] 115 % of control | [9] 105 % of control

N#Cc1ccccc1NCc1ccccc1
inactive: dose: 12.5 mg/kg/injection, schedule: Q01DX009 (ip), vehicle: distilled water + Tween-80 103 % of control | dose: 25.0 mg/kg/injection, schedule: Q01DX009 (ip), vehicle: distilled water + Tween-80 102 % of control | dose: 50.0 mg/kg/injection, schedule: Q01DX009 (ip), vehicle: distilled water + Tween-80 100 % of control and 97 % of control | dose: 100.0 mg/kg/injection, schedule: Q01DX009 (ip), vehicle: distilled water + Tween-80 100 % of control and 103 % of control and 92 % of control | dose: 200.0 mg/kg/injection, schedule: Q01DX009 (ip), vehicle: distilled water + Tween-80 94 % of control and 95 % of control (2×) | dose: 400.0 mg/kg/injection, schedule: Q01DX009 (ip), vehicle: distilled water + Tween-80 99 % of control and 93 % of control | dose: 600.0 mg/kg/injection, schedule: Q01DX009 (ip), vehicle: distilled water + Tween-80 99 % of control

c1cc[c]([Ge]([O][Ge]([c]2ccccc2)[c]2ccccc2)[c]2ccccc2)cc1.c1cc[c]([Ge]([O][Ge]([c]2ccccc2)[c]2ccccc2)[c]2ccccc2)cc1
inactive: dose: 50.0 mg/kg/injection, schedule: Q01DX005 (ip), vehicle: Klucel (hydroxypropylcellulose) (HPC) 89 % of control | dose: 100.0 mg/kg/injection, schedule: Q01DX005 (ip), vehicle: Klucel (hydroxypropylcellulose) (HPC) 91 % of control | dose: 200.0 mg/kg/injection, schedule: Q01DX005 (ip), vehicle: Klucel (hydroxypropylcellulose) (HPC) 89 % of control

CC1(C)CC(NCCCN(CCO)CCO)CC(C)(C)N1O
inactive: dose: 30.0 mg/kg/injection, schedule: Q01DX005 (ip), vehicle: saline 96 % of control | [12] 99 % of control | [13] 96 % of control

ClCc1nnn(Cc2ccccc2)c1CCl
inactive: dose: 50.0 mg/kg/injection, schedule: Q01DX009 (ip), vehicle: saline 102 % of control | dose: 100.0 mg/kg/injection, schedule: Q01DX009 (ip), vehicle: saline 89 % of control | dose: 200.0 mg/kg/injection, schedule: Q01DX009 (ip), vehicle: saline 92 % of control

NC(Cc1ccc(OC(c2ccccc2)c2ccccc2)cc1)C(=O)O (centres undefined)
inactive: [4] 116 % of control | [5] 98 % of control | dose: 50.0 mg/kg/injection, schedule: Q01DX009 (ip), vehicle: saline with Tween-80 88 % of control | dose: 100.0 mg/kg/injection, schedule: Q01DX009 (ip), vehicle: saline with Tween-80 95 % of control | dose: 200.0 mg/kg/injection, schedule: Q01DX009 (ip), vehicle: saline with Tween-80 97 % of control

C=C(C)C(Br)=C(C)C
inactive: dose: 12.5 mg/kg/injection, schedule: Q01DX001 (ip), vehicle: saline with Tween-80 108 % of control | dose: 25.0 mg/kg/injection, schedule: Q01DX001 (ip), vehicle: saline with Tween-80 107 % of control | dose: 50.0 mg/kg/injection, schedule: Q01DX001 (ip), vehicle: saline with Tween-80 99 % of control

Cc1cc2cc3c(=O)[nH]c(=O)cc-3n(CC(O)C(O)C(O)CO)c2cc1C (centres undefined)
inactive: dose: 12.5 mg/kg/injection, schedule: Q01DX009 (ip), vehicle: other 102 % of control | dose: 25.0 mg/kg/injection, schedule: Q01DX009 (ip), vehicle: other 96 % of control | dose: 50.0 mg/kg/injection, schedule: Q01DX009 (ip), vehicle: other 96 % of control | dose: 100.0 mg/kg/injection, schedule: Q01DX009 (ip), vehicle: other 95 % of control

Nc1nc(SN=Nc2ccc(S(N)(=O)=O)cc2)c2[nH]cnc2n1
inactive: dose: 7.5 mg/kg/injection, schedule: Q01DX009 (ip), vehicle: saline 118 % of control | dose: 15.0 mg/kg/injection, schedule: Q01DX009 (ip), vehicle: saline 100 % of control

COc1ccc(CC2C=CCN2C(=O)OCc2ccccc2)cc1 (centres undefined)
inactive: dose: 100.0 mg/kg/injection, schedule: Q01DX001 (ip), vehicle: Klucel (hydroxypropylcellulose) (HPC) 106 % of control | dose: 200.0 mg/kg/injection, schedule: Q01DX001 (ip), vehicle: Klucel (hydroxypropylcellulose) (HPC) 99 % of control | dose: 400.0 mg/kg/injection, schedule: Q01DX001 (ip), vehicle: Klucel (hydroxypropylcellulose) (HPC) 99 % of control

COc1ccc(Cc2cc3c(cc2OCC(=O)Nc2ccccn2)OCO3)cc1
inactive: [6] 92 % of control | [7] 90 % of control | [8] 86 % of control | [9] 90 % of control | [10] 90 % of control
